Experimental data from patent US11612583B2, “Disease modifying methods for treating neurodegenerative diseases using nootropic agents” (priority 2018, dated 2023).

Tests used:
Type in all cases: cell-based, mouse
[1] = system: primary cortical neurons treated with rotenone; experiment: Image-based analysis of mitochondrial content in dendrites (MAP2B/TOM20 immunostaining); settings: after rotenone 65 nM; Forskolin/NKH477 6.5 μM-8.5 μM or 250 μM dbt-cAMP; FIG. 4
Description: The rotenone-treated neurons were also studied by image-based analyses of mitochondrial content in dendrites from primary cortical neurons immunostained for dendrites (MAP2B) and for mitochondria (TOM20).

[2] = system: primary cortical neurons treated with rotenone; experiment: Oxygen consumption rates (XF24e Extracellular Flux Analyzer) in rotenone-treated primary cortical neurons; settings: after rotenone 65 nM 24 hours, 24 hrs
Procedure: Rotenone (1.26 mM stock, Sigma, Cat #R8875) was freshly prepared in water prior to each use. Stocks of rotenone were maintained in the dark at −20° C. for up to 6 months. Rotenone was used at 65 μM for neuroblastoma cells and at 65 nM for primary cortical neurons for 4-6 hours to induce oxidative and autophagic stress.
Forskolin (Coleus forskohlii, >98% HPLC, Sigma Aldrich) was prepared in DMSO as 5 mg/ml stocks (stable for up to 6 months if kept in the dark and stored in −20° C. until ready to use). On the day of the experiment, the forskolin aliquot was thawed and cells were treated once with forskolin at a concentration of 1 to up to 10 μM of forskolin in complete media for treating primary cortical neurons or for intraperitoneal administration of PINK1 knockout mice or PINK1 knockout rats.
Rotenone-treated primary neurons were then exposed to 250 μM dibutyryl cyclic AMP (dbt-cAMP) or with the parental or water-soluble form (NKH477) of Forskolin (6.5 μM-8.5 μM, 24 hrs). The basal oxygen consumption rates (OCRs), a proxy for mitochondrial function, were analyzed by using an XF24^e Extracellular Flux Analyzer (Agilent Technologies). The maximal oxygen consumption rates (OCRs), a proxy for maximal buffering capacity of mitochondrial function, were also analyzed by using an XF24^e Extracellular Flux Analyzer in primary cortical neurons treated with 1 μM FCCP, an ionophore that acts as a mitochondrial uncoupler.

[3] = system: primary cortical neurons treated with rotenone; experiment: Extracellular acidification rates (ECARs), proxy for glycolysis, in rotenone-treated primary cortical neurons; settings: after rotenone 65 nM 24 hours, 6.5 μM-8.5 μM, FIG. 3
Procedure: Rotenone (1.26 mM stock, Sigma, Cat #R8875) was freshly prepared in water prior to each use. Stocks of rotenone were maintained in the dark at −20° C. for up to 6 months. […]
The extracellular acidification rates (ECARs), a proxy for glycolysis, were also assessed by using an XF24^e Extracellular Flux Analyzer in primary neurons.

[4] = system: primary cortical neurons treated with rotenone; experiment: Dendrite length analysis (MAP2B immunostaining); settings: after rotenone 65 nM; Forskolin/NKH477 6.5 μM-8.5 μM or 250 μM dbt-cAMP; FIG. 5
primary cortical neurons = experiment: Rotenone toxicity in primary cortical neurons; settings: 24 hours

Structure (SMILES) | mitochondrial content in dendrites (% of dendrites occupied by mitochondria) [1] | spare respiratory capacity (Maximal OCRs-Baseline OCRs) ([2]; 6.5 μM-8.5 μM, 1 μM FCCP, FIG. 2) | baseline mitochondrial respiration (basal OCRs) ([2]; Forskolin or NKH477 6.5 μM-8.5 μM, FIG. 1) | glycolysis (baseline ECARs) [3] | dendrite arbors (total dendrite length per neuron) [4] | LD50 concentration (primary cortical neurons) [nM]
C=C[C@@]1(C)CC(=O)[C@]2(O)[C@@]3(C)[C@@H](O)CCC(C)(C)[C@@H]3[C@H](OC(=O)CCN(C)C)[C@H](OC(C)=O)[C@@]2(C)O1.Cl [NKH477] | completely blocked | completely restored | partially or completely restored | completely restored normal glycolytic function | completely blocked | –
CCCC(=O)Nc1ncnc2c1ncn2[C@@H]1O[C@@H]2COP(=O)(O)O[C@H]2[C@H]1OC(=O)CCC [dbt-cAMP, dibutyryl cyclic AMP] | reversed the loss of mitochondria within dendrites | – | – | – | reversed the loss of dendrites | –
C=C(C)[C@H]1Cc2c(ccc3c2O[C@@H]2COc4cc(OC)c(OC)cc4[C@@H]2C3=O)O1 [rotenone, Rotenone] | – | – | – | – | – | 65
